According to patent publication US7598234B2, “Steroid derived antibiotics” (Brigham Young University, priority 1998, dated 2009):
Converted amounts (≈) assume the structure as drawn.

Legend:
[1] = Method: Minimum inhibition concentrations (MIC) and minimum hemolytic concentrations (MHC) were measured as described in Li et al., Antimicrob. Agents. Chemother., 1999, 43, 1347.
[2] = tested on: Klebsiella pneumonia ATCC 13883; experiment: MIC and MBC measurement with Klebsiella pneumoniae ATCC 13883; format: cell-based; conditions: Table 10
Method in brief: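 Strains kept on Mueller-Hinton agar (Candida on Sabouraud dextrose agar); suspension mixed 1:1 with TSB containing serial compound concentrations; 37° C., 24 h, no shaking; turbidity A760; clear tubes plated on TSA, colonies counted, CFU/mL vs inoculum.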

[3] = tested on: Pseudomonas aeruginosa (ATCC 27853); experiment: Sensitization to erythromycin, Pseudomonas aeruginosa (ATCC 27853); format: cell-based; conditions: for MIC: concentration required to lower the MIC of erythromycin from 240 μg/mL to 5 μg/mL / MBC (with erythromycin): Table 7, P. aureginosa (ATCC 27853); for MBC (with erythromycin): erythromycin sensitization; for FIC / concentration required to inhibit bacterial growth with antibiotic: Table 11, Pseudomonas aeruginosa ATCC 27853; for FIC: erythromycin (by order); for concentration required to inhibit bacterial growth with antibiotic: erythromycin (by order) at 0.5, 1.0 or 3.0 μg/mL
Method in brief: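 Tube checkerboard in TSB: cholic acid derivatives added, then erythromycin or novobiocin 15 min later, antibiotics at 0.5, 1.0 or 3.0 μg/mL; stationary 37 °C, 24 h. Turbidity read at 760 nm; clear samples subcultured on TSA for CFU counts versus inoculum; FIC derived for synergy.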

[4] = tested on: Streptococcus pyrogenes ATCC 19615; experiment: MIC and MBC measurement with Streptococcus pyogenes ATCC 19615; format: cell-based; conditions: Table 10
Text: (§1) General: Microorganisms. Reference strains were purchased from the American Type Culture Collection (Rockville, Md.) or Bactrol disks from Difeo Laboratories (Detroit, Mich.). The following specific ATCC strains were used: 10798 Escherichia coli, 25922 Escherichia coli, 13883 Klebsiella pneumoniae, 27853 Pseudomonas aeruginosa, 14028 Salmonella typhimurium, 29212 Enterococcus faecalis, 25923 Staphylococcus aureus, 19615 Streptococcus pyogenes, and 90028 Candida albicans. Bacterial strains were maintained on Mueller-Hinton agar plates, and Candida albicans was maintained on Sabouraud Dextrose agar plates.
(§2) Tryptic soy broth (TSB) was made by dissolving 27.5 grams of tryptic soy broth without dextrose (DIFCO Laboratories) in 1 liter of deionized water and sterilizing at 121° C. for 15 minutes. Solid agar (TSA) plates were made by dissolving 6.4 grams of tryptic soy broth and 12 grams of agar (purified grade, Fischer Scientific) in 800 mL of deionized water and sterilizing at 121° C. for 20 minutes. Aliquots (20 mL) of the homogeneous solution were then poured in sterile plastic petri dishes (100×15 mm, Fisher Scientific). Solutions of compounds were made by dissolving the HCl salt of the respective compound into an appropriate amount of deionized and sterilized water followed by microfiltration.
(§3) Aliquots of 1 mL of the suspension were added to test tubes containing 1 mL TSB and incrementally varied concentrations of cholic acid derivatives and/or erythromycin or novobiocin. In the sensitization experiments, erythromycin or novobiocin were added 15 minutes later than the cholic acid derivatives. The samples were subjected to stationary incubation at 37° C. for 24 hours. Sample turbidity was determined by measuring absorption at 760 nm (HP 8453 UV-Visible Chemstation, Hewlett Packard). Additionally, an alliquot from each of the samples showing no measurable turbidity was subcultured on TSA plates (alliquots were diluted to provide fewer than 300 CFU). Colonies that grew on the subculture after overnight incubation were counted and the number of CFU/mL in the samples were calculated. The calculated values were compared to the number of CFU/mL in the original inoculum.

[5] = tested on: E. coli (ATCC 25922); experiment: Sensitization to erythromycin, E. coli (ATCC 25922); format: cell-based, Escherichia coli; conditions: for MIC: concentration required to lower the MIC of erythromycin from 60 μg/mL to 1 μg/mL / MBC (with erythromycin): Table 5, E. coli (ATCC 25922); for MBC (with erythromycin): erythromycin sensitization; for FIC / concentration required to inhibit bacterial growth with antibiotic: Table 11, Escherichia coli ATCC 25922; for FIC: erythromycin (by order); for concentration required to inhibit bacterial growth with antibiotic: erythromycin (by order) at 0.5, 1.0 or 3.0 μg/mL
Method in brief: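 Bacteria grown in TSB with varied cholic acid derivative concentrations; erythromycin (0.5, 1.0 or 3.0 μg/mL) added 15 min later; stationary incubation 37° C, 24 h. Growth read as absorbance at 760 nm, with clear samples subcultured on TSA for CFU/mL; derivative concentration inhibiting growth determined.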

[6] = tested on: Candida albicans ATCC 90028; experiment: MIC and MBC measurement with Candida albicans ATCC 90028; format: cell-based; conditions: Table 10
Text: as §1, §2, §3

[7] = tested on: E. coli (ATCC 25922); experiment: MIC and MBC measurement with E. coli (ATCC 25922); format: cell-based, Escherichia coli
Method in brief: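 Bacteria incubated statically 24 h at 37 °C in TSB with graded compound concentrations (erythromycin or novobiocin added 15 min later in sensitization runs). MIC from turbidity at 760 nm; MBC by subculturing clear samples on TSA and comparing CFU/mL to inoculum.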

[8] = tested on: E. coli containing an inducible luciferase coding plasmid; experiment: Luciferin/luciferase-based permeabilization / cell lysis assay; design: species or system Escherichia coli; conditions: permeabilization of the outer membrane allowing luciferin to enter the cell
Method: Using a technique described by J. M. Shupp, S. E. Travis, L. B. Price, R. F. Shand, P. Keim, RAPID BACTERIAL PERMEABILIZATION REAGENT USEFUL FOR ENZYME ASSAYS, Biotechniques, 1995, vol.
In this assay, E. coli containing an inducible luciferase coding plasmid was incubated with the inducing agent […], then treated with a lysis buffer containing either PMB or one of the cholic acid derivatives, and Triton X-100. Luciferin and ATP were then added. […] The concentrations of the membrane disrupting agents (PMB and the cholic acid derivatives) were varied, and the resulting luminescence was measured.

[9] = Table 10, Escherichia coli ATCC 25922

| Compound | MHC [1] | MBC [2] | MIC [2] | MIC: concentration required to lower the MIC of erythromycin from 240 μg/mL to 5 μg/mL [3] | MBC (with erythromycin) [3] | FIC [3] | concentration required to inhibit bacterial growth with antibiotic [3] | MBC [4] | MIC [4] | MIC: concentration required to lower the MIC of erythromycin from 60 μg/mL to 1 μg/mL [5] | MBC (with erythromycin) [5] | FIC [5] | concentration required to inhibit bacterial growth with antibiotic [5] | MBC [6] | MIC [6] | MBC ([7]; Table 4, E. coli (ATCC 25922)) | MIC ([7]; Table 4, E. coli (ATCC 25922)) | MBC [7, 9] | MIC [7, 9] | half maximum luminescence [8] |
| --- | --- | --- | --- | --- | --- | --- | --- | --- | --- | --- | --- | --- | --- | --- | --- | --- | --- | --- | --- | --- |
| C[C@H](CCCN(C)Cc1ccccc1)[C@H]1CC[C@H]2[C@@H]3[C@H](OCCN)C[C@@H]4C[C@H](OCCN)CC[C@]4(C)[C@H]3C[C@H](OCCN)[C@]12C [Compound 1] | 78 µg/mL | >36 µg/mL | 24 µg/mL (≈ 38.3 µM) | 8 µg/mL | 45 µg/mL | 0.29 | 6.6 µg/mL | 4.4 µg/mL (≈ 7.02 µM) | 3.0 µg/mL (≈ 4.78 µM) | 2 µg/mL | 14 µg/mL | 0.15 | 2.5 µg/mL | >50 µg/mL | 49 µg/mL (≈ 78.2 µM) | 40 µg/mL (≈ 63.8 µM) | 25 µg/mL (≈ 39.9 µM) | 22 µg/mL (≈ 35.1 µM) | 22 µg/mL (≈ 35.1 µM) | – |
| C[C@H](CCCN(C)Cc1ccccc1)[C@H]1CC[C@H]2[C@@H]3[C@H](OCCCN)C[C@@H]4C[C@H](OCCCN)CC[C@]4(C)[C@H]3C[C@H](OCCCN)[C@]12C [Compound 2] | 58 µg/mL | 17 µg/mL (≈ 25.4 µM) | 14 µg/mL (≈ 20.9 µM) | 4 µg/mL | 25 µg/mL | 0.25 | 2.4 µg/mL | 2.3 µg/mL (≈ 3.44 µM) | 2.0 µg/mL (≈ 2.99 µM) | 1 µg/mL | 5 µg/mL | 0.078 | 0.23 µg/mL | 42 µg/mL (≈ 62.8 µM) | 30 µg/mL (≈ 44.8 µM) | 20 µg/mL (≈ 29.9 µM) | 10 µg/mL (≈ 14.9 µM) | 6.8 µg/mL (≈ 10.2 µM) | 5.1 µg/mL (≈ 7.62 µM) | 7 µg/mL |
| C[C@]12CC[C@@H](OCCCN)C[C@H]1C[C@@H](OCCCN)[C@@H]1[C@@H]2C[C@H](OCCCN)[C@]2(C)[C@@H](O)CC[C@@H]12 [Compound 106] | >100 µg/mL | 100 µg/mL (≈ 202 µM) | >100 µg/mL | – | – | 0.22 | 16 µg/mL | 37 µg/mL (≈ 74.6 µM) | 18 µg/mL (≈ 36.3 µM) | – | – | 0.073 | 3.2 µg/mL | 92 µg/mL (≈ 186 µM) | 75 µg/mL (≈ 151 µM) | – | – | 90 µg/mL (≈ 182 µM) | 80 µg/mL (≈ 161 µM) | – |
| CCCOCCC[C@@H](C)[C@H]1CC[C@H]2[C@@H]3[C@H](OCCCN)C[C@@H]4C[C@H](OCCCN)CC[C@]4(C)[C@H]3C[C@H](OCCCN)[C@]12C [Compound 112] | 5.9 µg/mL | 27 µg/mL (≈ 44.4 µM) | 23 µg/mL (≈ 37.8 µM) | – | – | 0.59 | 1.0 µg/mL | 3.0 µg/mL (≈ 4.93 µM) | 2.4 µg/mL (≈ 3.95 µM) | – | – | 0.12 | 0.59 µg/mL | 45 µg/mL (≈ 74 µM) | 41 µg/mL (≈ 67.4 µM) | – | – | 7.4 µg/mL (≈ 12.2 µM) | 6.6 µg/mL (≈ 10.9 µM) | – |
